The results in this text go back to US8232059B2, “Method of identifying A. baumannii with OXA-131-like drug resistance in diabetic patients” (priority 2010, dated 2012).

The assay concerns A. baumannii isolates. Briefly: MICs (minimum inhibitory concentrations) for susceptibility to known antibiotics, British Society for Antimicrobial Chemotherapy guidelines. In kind it is cell-based, Acinetobacter baumannii. Conditions: 20 clinical isolates from diabetic patients; for MIC: Acinetobacter baumannii. The text has this:
All twenty isolates were further tested for MICs (minimum inhibitory concentrations) for susceptibility to several known antibiotics using the British Society for Antimicrobial Chemotherapy guidelines.

≈ marks a conversion by molar mass, not a printed value. Bounds are passed on as bounds.

Consider `CN(C)[C@@H]1C(O)=C(C(N)=O)C(=O)[C@@]2(O)C(O)=C3C(=O)c4c(O)cccc4[C@@](C)(O)[C@H]3C[C@@H]12` [Tetracycline], for which the “% resistance” value was determined as 100% and the “No. of resistant isolates” value was 20.
Turning to Colistin, the “% resistance” value was determined as 0%, the MIC range was 0.25 to 0.5 µg/mL, the “No. of resistant isolates” value is given as 0 and the “susceptibility/resistance of the isolates in words” value (“susceptibility/resistance” below) is given as “susceptible”.
As for `O=C(N[C@H](CO)[C@H](O)c1ccc([N+](=O)[O-])cc1)C(Cl)Cl` [Chloramphenicol], the “% resistance” value is 100%; the “No. of resistant isolates” value was found to be 20; the “susceptibility/resistance” value is given as “highly resistant”; the MIC (in general, the smallest concentration in the dilution series that meets the test's criterion for growth inhibition) is over 128 µg/mL.
Consider `C[C@@H](O)[C@H]1C(=O)N2C(C(=O)O)=C(S[C@@H]3CN[C@H](C(=O)Nc4cccc(C(=O)O)c4)C3)[C@H](C)[C@H]12` [Ertapenem], for which the “% resistance” value is given as 100%, the “No. of resistant isolates” value is recorded as 20, the “susceptibility/resistance” value is “highly resistant” and the MIC lay in the range of 4 to 64 µg/mL (≈ 8.41 to 135 µM).
`C[C@@H](O)[C@H]1C(=O)N2C(C(=O)O)=C(SCCN=CN)C[C@H]12` [Imipenem]: the “% resistance” value was found to be 0%, the “No. of resistant isolates” value came out at 0 and the MIC is 0.25 to 2 µg/mL (≈ 0.835 to 6.68 µM).
`CC1(C)[C@H](C(=O)O)N2C(=O)C[C@H]2S1(=O)=O` [Sulbactam]: the “% resistance” value is on record as 100%, the “No. of resistant isolates” value is 20 and the “susceptibility/resistance” value is listed as “highly resistant”.
Consider `CC1(C)S[C@@H]2[C@H](NC(=O)[C@H](N)c3ccccc3)C(=O)N2[C@H]1C(=O)O` [Ampicillin], for which the “% resistance” value is given as 100%, the “No. of resistant isolates” value turned out to be 20 and the “susceptibility/resistance” value is listed as “highly resistant”.
The like results for Gentamicin were, in that order, 20%, 4 and “majority was also resistant”.
Regarding `Cc1onc(-c2ccccc2)c1C(=O)N[C@@H]1C(=O)N2[C@@H]1SC(C)(C)[C@@H]2C(=O)O` [Oxacillin], the “% resistance” value is reported as 100%, the “No. of resistant isolates” value was 20, the “susceptibility/resistance” value is “highly resistant” and the MIC was over 128 µg/mL.
Regarding `CCn1cc(C(=O)O)c(=O)c2ccc(C)nc21` [Nalidixic Acid], the “% resistance” value is recorded as 75%, the “No. of resistant isolates” value was 15 and the “susceptibility/resistance” value is given as “majority was also resistant”.
Take `CC1COc2c(N3CCN(C)CC3)c(F)cc3c(=O)c(C(=O)O)cn1c23` (stereo not shown) [Ofloxacin]: the “% resistance” value was found to be 70%, the “No. of resistant isolates” value stood at 14 and the MIC fell in the range of 1 to 32 µg/mL (≈ 2.77 to 88.6 µM).
For the compound `CO[C@H]1/C=C/O[C@@]2(C)Oc3c(C)c(O)c4c(O)c(c(/C=N/N5CCN(C)CC5)c(O)c4c3C2=O)NC(=O)/C(C)=C\C=C\[C@H](C)[C@H](O)[C@@H](C)[C@@H](O)[C@@H](C)[C@H](OC(C)=O)[C@@H]1C` [Rifampicin], the “% resistance” value was 80%, the “No. of resistant isolates” value was found to be 16 and the minimal inhibitory concentration (MIC) was in the range of 4 to 32 µg/mL (≈ 4.86 to 38.9 µM).
For the compound `C[C@@H](O)[C@H]1C(=O)N2C(C(=O)O)=C(S[C@@H]3CN[C@H](C(=O)N(C)C)C3)[C@H](C)[C@H]12` [Meropenem], the “% resistance” value was determined as 20%, the “No. of resistant isolates” value came to 4, the “susceptibility/resistance” value is “all but four isolates (which had low-level resistance) were susceptible” and the MIC lay within 4 to 8 µg/mL (≈ 10.4 to 20.9 µM).
